The results in this text go back to US10981926B2 (Janssen Pharmaceutica NV, priority 2016, dated 2021).

The target of assay [1] is T1, wild-type Androgen Receptor (AR-wt) (Homo sapiens (Human), UniProt P10275). Nature of the assay: LNCaP-AR-wt AG reporter assay (agonist mode). The format is cell-based. The following applies: agonist mode; for Emax: maximum % stimulation over tested concentration range, read-out: LNCaP-AR-wt AG MAX % Stim; for EC50: pEC50 = −Log10(EC50 in Molar), read-out: LNCaP-AR-wt AG pEC50 (converted). For orientation: A reporter such as luciferase makes a cellular process visible.

The target in assay [2] is T1, wild-type Androgen Receptor (AR-wt). Nature of the assay: LNCaP-AR-wt ANT reporter assay (antagonist mode). The format is cell-based. The following applies: antagonist mode; for Emax: maximum % inhibition of R1881 control response over tested concentration range, read-out: LNCaP-AR-wt ANT MAX % Inh; for IC50: pIC50 = −Log10(IC50 in Molar), read-out: LNCaP-AR-wt ANT pIC50 (converted).

A further assay has as its system rGABA-gated Cl− channel. As to the kind of experiment: GABA-Gated Cl Channel Antagonist Radioligand Binding Assay. Also on record: species or system rat. The following applies: 10 μM single point, [35S]-TBPS, cerebral cortex membrane homogenates. A digest of the protocol:
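Values give percent inhibition of control specific […] (3 nM) binding at a single 10 μM compound concentration. Cerebral cortex membranes, 120 min, 22° C, phosphate buffer pH 7.4 with 500 mM NaCl; 20 μM picrotoxinin sets nonspecific binding; filtration and scintillation read-out.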

For assay [3], the target named is T2, F876L mutant Androgen Receptor (AR-F876L) (Homo sapiens (Human), UniProt P10275, F877L). As to the kind of experiment: LNCaP-AR-F876L AG reporter assay (agonist mode). The class given is cell-based. The note with it: agonist mode; for Emax: maximum % stimulation over tested concentration range, read-out: LNCaP-AR-F876L AG MAX % Stim; for EC50: pEC50 = −Log10(EC50 in Molar), read-out: LNCaP-AR-F876L AG pEC50 (converted).

Assay [4] concerns the target T2, F876L mutant Androgen Receptor (AR-F876L). Nature of the assay: LNCaP-AR-F876L ANT reporter assay (antagonist mode). The class given is cell-based. The note with it: antagonist mode; for Emax: maximum % inhibition of R1881 control response over tested concentration range, read-out: LNCaP-AR-F876L ANT MAX % Inh; for IC50: pIC50 = −Log10(IC50 in Molar), read-out: LNCaP-AR-F876L ANT pIC50 (converted).

Assay [5] has as its system androgen dependent signaling (androgen sensitive organs). Nature of the assay: Hershberger Assay. The class given is in vivo, rat. The note with it: 3 mg/kg (positive control), 10 days, with TP 0.4 mg/kg, castrated rats, mean ± SD (n=6). As to the method: The effect of AR antagonists on androgen dependent signaling in vivo was assessed using the Hershberger assay. In this assay, peripubertal castrated male Sprague-Dawley rats were administered AR antagonists described herein in the presence of testosterone (0.4 mg/kg testosterone propionate) and the weights of androgen dependent organs measured. Dosing was continued for 10 days and measurements taken 24 h after the last dose. The extent of antagonism of AR and consequent inhibition of organ growth was evaluated by comparison to the castration control. Compounds of Formula (I) were dosed orally QD and an endpoint assessment made by change in weight of 5 androgen sensitive organs (ASO): Paired Cowper's Glands (CG), Seminal Vesicles with Fluids and Coagulating Glands (SVCG), Glans Penis (GP), Ventral Prostate (VP) and Levator Ani-Bulbocavernosus Complex (LABC)). According to assay guidelines, statistically significant suppression of ASO is required in 2 of 5 organs for a compound to be classified as an anti-androgen (analysis was performed by t-test/Mann-Whitney).
Unless otherwise stated, compounds defined herein were administered at 30 mg/kg and flutamide (FT), positive control, at 3 mg/kg. All compounds were co-administered with testosterone propionate (TP, 0.4 mg/kg) which was also administered alone, untreated control, (castrated only rats served as the control for complete androgen blockade). A statistically significant change in ASO achieved in at least 2 of 5 organs was indicative of an active compound.

Structures are written as SMILES.

T2 sequence (P10275 whole entry F877L): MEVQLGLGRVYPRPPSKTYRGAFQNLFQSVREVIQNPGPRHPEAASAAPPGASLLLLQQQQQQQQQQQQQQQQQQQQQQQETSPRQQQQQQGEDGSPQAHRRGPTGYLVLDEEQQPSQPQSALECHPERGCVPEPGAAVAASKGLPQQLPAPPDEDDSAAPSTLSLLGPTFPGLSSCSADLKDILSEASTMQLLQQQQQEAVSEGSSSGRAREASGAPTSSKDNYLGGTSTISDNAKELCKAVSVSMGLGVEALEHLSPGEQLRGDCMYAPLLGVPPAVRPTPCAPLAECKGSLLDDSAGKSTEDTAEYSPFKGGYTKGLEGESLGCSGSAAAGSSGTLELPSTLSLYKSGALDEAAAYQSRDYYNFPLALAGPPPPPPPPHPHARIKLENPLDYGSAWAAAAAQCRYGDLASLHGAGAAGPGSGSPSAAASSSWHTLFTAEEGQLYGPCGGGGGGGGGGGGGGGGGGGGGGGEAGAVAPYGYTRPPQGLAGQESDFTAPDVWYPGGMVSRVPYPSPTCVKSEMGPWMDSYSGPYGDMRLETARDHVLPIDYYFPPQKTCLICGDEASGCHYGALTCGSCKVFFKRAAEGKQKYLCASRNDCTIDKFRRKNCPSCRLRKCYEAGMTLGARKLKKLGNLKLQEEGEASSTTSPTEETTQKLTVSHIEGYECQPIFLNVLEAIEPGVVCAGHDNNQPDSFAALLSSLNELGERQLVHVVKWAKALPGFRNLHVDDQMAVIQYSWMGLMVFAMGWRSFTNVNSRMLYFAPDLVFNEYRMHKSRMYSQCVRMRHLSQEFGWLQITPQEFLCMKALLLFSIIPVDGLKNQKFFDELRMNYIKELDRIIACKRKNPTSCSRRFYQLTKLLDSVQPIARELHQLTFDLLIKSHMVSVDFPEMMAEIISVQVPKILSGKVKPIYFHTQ
T1 sequence (P10275 whole entry): as the sequence (P10275 whole entry F877L) above, with L877F counted along it

On to `C[N@+]1([O-])CC[C@@H](Oc2ccc(N3C(=S)N(c4cnc(C#N)c(C(F)(F)F)c4)C(=O)C34CCC4)cc2)CC1` [Cpd 191, 5-[8-[4-(1-methyl-1-oxido-piperidin-1-ium-4-yl)oxyphenyl]-5-oxo-7-thioxo-6,8-diazaspiro[3.4]octan-6-yl]-3-(trifluoromethyl)pyridine-2-carbonitrile], for which the Emax in assay [1] is -0.2%; in assay [2] it was 99.4%; in assay [3] it was 0%; in assay [4], 99.8%. Moreover, the EC50 in assay [1] and in assay [3] was more than 15100 nM throughout. Further, the IC50 is 1380 nM in assay [2] and 1120 nM in assay [4]. Moreover, the “rGABA-gated Cl− channel % inh @10 μM” value in the assay on rGABA-gated Cl− channel came to 47.9%.
On to `N#Cc1ncc(N2C(=O)C3(CCC3)N(c3ccc(CN4CCNCC4)cc3)C2=S)cc1Cl` [Cpd 207, 3-chloro-5-[5-oxo-8-[4-(piperazin-1-ylmethyl)phenyl]-7-thioxo-6,8-diazaspiro[3.4]octan-6-yl]pyridine-2-carbonitrile], for which the Emax is 0% in assay [1], 101% in assay [2], 0% in assay [3] and 100% in assay [4]. In addition, the EC50 in assay [1] and in assay [3] was more than 15100 nM each time. Besides, the IC50 in assay [2] was 407 nM; in assay [4], 380 nM. The “rGABA-gated Cl− channel % inh @10 μM” value in the assay with rGABA-gated Cl− channel is on record as 27.9%.
Take `COc1cc(N2C(=O)C3(CCC3)N(c3ccc4c(cnn4C4CCN(CCO)CC4)c3)C2=S)cnc1C#N` [Cpd 225, 5-[8-[1-[1-(2-hydroxyethyl)-4-piperidyl]indazol-5-yl]-5-oxo-7-thioxo-6,8-diazaspiro[3.4]octan-6-yl]-3-methoxy-pyridine-2-carbonitrile]: the Emax in assay [1] was 0.4%; in assay [2] it was 101%; in assay [3] it was 0.5%; in assay [4], 100%. In addition, the EC50 in assay [1] and in assay [3] was more than 15100 nM each time. Moreover, the IC50 in assay [2] is 339 nM; in assay [4], 209 nM. Also, the “rGABA-gated Cl− channel % inh @10 μM” value in the assay with rGABA-gated Cl− channel stood at 18.6%.
Regarding `N#Cc1ncc(N2C(=O)C3(CCC3)N(c3ccc(CC4CCC(N)CC4)cc3)C2=S)cc1C(F)(F)F` (centres unmarked) [Cpd 233, 5-[8-[4-[(4-aminocyclohexyl)methyl]phenyl]-5-oxo-7-thioxo-6,8-diazaspiro[3.4]octan-6-yl]-3-(trifluoromethyl)pyridine-2-carbonitrile], the Emax was -0.2% in assay [1], 108% in assay [2], 0% in assay [3] and 103% in assay [4]. Further, the EC50 in assay [1] and in assay [3] was more than 15100 nM in each case. Further, the IC50 in assay [2] was 240 nM; in assay [4] it was 186 nM. Further, in the assay on rGABA-gated Cl− channel, the “rGABA-gated Cl− channel % inh @10 μM” value is recorded as 80.2%.
As to `N#Cc1ncc(N2C(=O)C3(CCC3)N(c3ccc(CC4CCNCC4)cc3)C2=S)cc1C(F)(F)F` [Cpd 234, 5-[5-oxo-8-[4-(4-piperidylmethyl)phenyl]-7-thioxo-6,8-diazaspiro[3.4]octan-6-yl]-3-(trifluoromethyl)pyridine-2-carbonitrile], the Emax in assay [1] is 0.1%; in assay [2], 100%; in assay [3], 0%; in assay [4], 102%. In addition, the EC50 in assay [1] and in assay [3] was more than 15100 nM in each case. In addition, the IC50 in assay [2] was 479 nM; in assay [4] it was 257 nM. The “rGABA-gated Cl− channel % inh @10 μM” value with rGABA-gated Cl− channel stood at 57.4%.
In the case of `N#Cc1ncc(N2C(=O)C3(CCC3)N(c3ccc(SC4CCNCC4)cc3)C2=S)cc1C(F)(F)F` [Cpd 240, 5-[5-oxo-8-[4-(4-piperidylsulfanyl)phenyl]-7-thioxo-6,8-diazaspiro[3.4]octan-6-yl]-3-(trifluoromethyl)pyridine-2-carbonitrile], the Emax in assay [1] was found to be 1%; in assay [2] it was 106%; in assay [3], 0%; in assay [4], 105%. The EC50 in assay [1] and in assay [3] was more than 15100 nM in each case. Moreover, the IC50 was 457 nM in assay [2] and 224 nM in assay [4]. In the assay with rGABA-gated Cl− channel, the “rGABA-gated Cl− channel % inh @10 μM” value is reported as 44.7%.
For `CN1CCOC(c2ccc(N3C(=S)N(c4cnc(C#N)c(C(F)(F)F)c4)C(=O)C34CCC4)cc2)C1` (centres unmarked) [Cpd 241, 5-[8-[4-(4-methylmorpholin-2-yl)phenyl]-5-oxo-7-thioxo-6,8-diazaspiro[3.4]octan-6-yl]-3-(trifluoromethyl)pyridine-2-carbonitrile], the Emax in assay [1] was -0.1%; in assay [2], 103%; in assay [3], 1.1%; in assay [4] it was 103%. The EC50 in assay [1] and in assay [3] was more than 15100 nM throughout. Also, the IC50 in assay [2] is 224 nM; in assay [4], 158 nM. Further, the “rGABA-gated Cl− channel % inh @10 μM” value in the assay on rGABA-gated Cl− channel amounted to 87.4%.
Regarding `CN1CCC(Sc2ccc(N3C(=S)N(c4cnc(C#N)c(C(F)(F)F)c4)C(=O)C34CCC4)cc2)CC1` [Cpd 242, 5-[8-[4-[(1-methyl-4-piperidyl)sulfanyl]phenyl]-5-oxo-7-thioxo-6,8-diazaspiro[3.4]octan-6-yl]-3-(trifluoromethyl)pyridine-2-carbonitrile], the Emax in assay [1] is 0.1%; in assay [2], 99.9%; in assay [3], -0.1%; in assay [4], 104%. Besides, the EC50 in assay [1] and in assay [3] was more than 15100 nM each time. Further, the IC50 was 562 nM in assay [2] and 245 nM in assay [4]. Moreover, the “rGABA-gated Cl− channel % inh @10 μM” value in the assay with rGABA-gated Cl− channel is given as 60.2%.
As to `N#Cc1ncc(N2C(=O)C3(CCC3)N(c3ccc(C4CNCCO4)cc3)C2=S)cc1C(F)(F)F` (centres unmarked) [Cpd 243, 5-[8-(4-morpholin-2-ylphenyl)-5-oxo-7-thioxo-6,8-diazaspiro[3.4]octan-6-yl]-3-(trifluoromethyl)pyridine-2-carbonitrile], the Emax in assay [1] came out at 0.2%; in assay [2] it was 101%; in assay [3], 0.7%; in assay [4] it was 100%. The EC50 in assay [1] and in assay [3] was more than 15100 nM each time. For the same compound, the IC50 was 1620 nM in assay [2] and 347 nM in assay [4]. For the same compound, the “rGABA-gated Cl− channel % inh @10 μM” value with rGABA-gated Cl− channel came to 57.2%.
`CC(C)C(=O)Nc1ccc([N+](=O)[O-])c(C(F)(F)F)c1` [Flutamide, flutamide, reference compound]: in assay [5], the “ASO Organ Growth (% of TP control) SVCG” value is 16.6 ± 16.3 % of TP control and the “ASO Organ Growth (% of TP control) VP” value is given as 24.4 ± 35.5 % of TP control.
